Results: patent US12264156B2, “Compounds and pharmaceutical compositions thereof for the treatment of diseases” (GALAPAGOS NV, priority 2018, dated 2025)

Key:
Format in all cases: biochemical
Details in all cases: ADP-Glo SIK kinase assay
[1] = molecular target: T1, SIK1 (Homo sapiens, UniProt P57059); assay: ADP-Glo kinase assay, SIK1
T1 construct: purchased Carna Biosciences 02-131
Procedure, shortened: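 Enzyme–substrate mix was started with ATP and incubated 120 min at RT. ADP formed was quantified by ADP-Glo: 40 min ATP depletion, then 30 min detection reagent converting ADP to ATP for luciferase luminescence, which rises with kinase activity. Controls: 1% DMSO and 10 μM staurosporine (final).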

[2] = molecular target: T2, SIK2 (Homo sapiens, UniProt Q9H0K1); assay: ADP-Glo kinase assay, SIK2
T2 construct: purchased ThermoFisher Scientific PV4792
T2 sequence (Q9H0K1 whole entry): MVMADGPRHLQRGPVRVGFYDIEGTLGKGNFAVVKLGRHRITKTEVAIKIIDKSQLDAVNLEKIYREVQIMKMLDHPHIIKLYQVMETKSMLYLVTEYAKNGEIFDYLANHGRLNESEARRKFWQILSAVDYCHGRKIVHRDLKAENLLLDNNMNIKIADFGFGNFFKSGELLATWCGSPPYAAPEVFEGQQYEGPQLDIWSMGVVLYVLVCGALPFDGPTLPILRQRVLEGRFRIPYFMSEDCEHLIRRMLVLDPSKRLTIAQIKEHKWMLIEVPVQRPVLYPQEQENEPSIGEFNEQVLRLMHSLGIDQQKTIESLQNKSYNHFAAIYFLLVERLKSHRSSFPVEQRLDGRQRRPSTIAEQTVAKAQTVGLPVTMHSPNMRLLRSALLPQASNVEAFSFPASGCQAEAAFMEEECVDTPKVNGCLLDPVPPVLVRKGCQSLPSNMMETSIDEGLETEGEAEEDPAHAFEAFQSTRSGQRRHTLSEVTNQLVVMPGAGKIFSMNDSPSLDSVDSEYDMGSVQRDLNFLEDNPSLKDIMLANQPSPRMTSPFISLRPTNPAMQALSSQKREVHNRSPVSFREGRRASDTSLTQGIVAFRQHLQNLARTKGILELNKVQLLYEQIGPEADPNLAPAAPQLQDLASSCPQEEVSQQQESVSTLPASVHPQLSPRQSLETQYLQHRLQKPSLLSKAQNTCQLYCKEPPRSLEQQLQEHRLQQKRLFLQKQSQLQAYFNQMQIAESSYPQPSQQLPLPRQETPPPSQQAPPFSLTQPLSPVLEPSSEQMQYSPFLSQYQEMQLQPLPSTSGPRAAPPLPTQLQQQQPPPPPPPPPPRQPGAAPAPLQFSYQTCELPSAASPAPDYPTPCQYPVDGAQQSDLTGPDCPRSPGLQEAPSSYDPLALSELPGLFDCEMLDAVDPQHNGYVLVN
Procedure, shortened: (§1)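 Wells with 1% DMSO or 10 μM staurosporine (final) define the control window. The kinase reaction with substrate and ATP runs 120 min at RT, followed by ADP-Glo detection: ATP depletion (40 min) and ADP-derived luminescence (30 min).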

[3] = molecular target: T3, SIK3 (Homo sapiens, UniProt Q9Y2K2); assay: ADP-Glo kinase assay, SIK3
T3 construct: purchased SignalChem S12-11G-100
T3 sequence (Q9Y2K2 whole entry): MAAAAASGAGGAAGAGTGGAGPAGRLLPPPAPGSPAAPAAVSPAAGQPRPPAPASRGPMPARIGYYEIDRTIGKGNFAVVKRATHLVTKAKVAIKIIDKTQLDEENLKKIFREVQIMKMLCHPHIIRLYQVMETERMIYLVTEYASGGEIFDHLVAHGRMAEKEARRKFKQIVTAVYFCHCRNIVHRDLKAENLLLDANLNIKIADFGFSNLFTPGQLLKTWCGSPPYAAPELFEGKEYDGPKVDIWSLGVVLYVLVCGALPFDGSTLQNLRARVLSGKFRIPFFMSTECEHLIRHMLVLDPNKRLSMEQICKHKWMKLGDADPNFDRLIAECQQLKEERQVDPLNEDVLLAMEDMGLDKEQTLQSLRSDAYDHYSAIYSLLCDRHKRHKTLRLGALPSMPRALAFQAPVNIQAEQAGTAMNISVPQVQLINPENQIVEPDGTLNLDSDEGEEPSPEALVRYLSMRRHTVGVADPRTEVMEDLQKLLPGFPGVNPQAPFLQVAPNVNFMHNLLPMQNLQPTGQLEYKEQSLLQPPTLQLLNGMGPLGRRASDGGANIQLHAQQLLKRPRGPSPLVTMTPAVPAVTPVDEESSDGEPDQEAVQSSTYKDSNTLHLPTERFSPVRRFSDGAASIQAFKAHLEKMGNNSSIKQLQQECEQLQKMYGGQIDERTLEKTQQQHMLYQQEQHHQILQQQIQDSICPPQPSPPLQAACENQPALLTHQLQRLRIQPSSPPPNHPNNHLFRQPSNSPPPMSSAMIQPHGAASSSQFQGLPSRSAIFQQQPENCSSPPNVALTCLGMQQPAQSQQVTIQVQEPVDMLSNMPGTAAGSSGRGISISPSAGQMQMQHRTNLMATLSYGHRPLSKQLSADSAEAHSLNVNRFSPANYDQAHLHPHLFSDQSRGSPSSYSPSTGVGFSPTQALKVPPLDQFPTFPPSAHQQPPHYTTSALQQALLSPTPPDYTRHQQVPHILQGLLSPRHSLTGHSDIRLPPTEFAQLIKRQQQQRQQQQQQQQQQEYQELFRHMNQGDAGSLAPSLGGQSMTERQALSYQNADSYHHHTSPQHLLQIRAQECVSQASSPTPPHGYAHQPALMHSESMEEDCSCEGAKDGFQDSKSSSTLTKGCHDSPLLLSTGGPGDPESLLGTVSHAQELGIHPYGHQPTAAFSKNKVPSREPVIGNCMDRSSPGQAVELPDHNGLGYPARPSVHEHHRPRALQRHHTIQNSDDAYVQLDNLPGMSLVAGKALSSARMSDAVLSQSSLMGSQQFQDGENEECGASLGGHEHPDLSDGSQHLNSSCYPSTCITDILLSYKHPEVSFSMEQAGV
Procedure, shortened: as §1

T1 sequence (P57059 whole entry): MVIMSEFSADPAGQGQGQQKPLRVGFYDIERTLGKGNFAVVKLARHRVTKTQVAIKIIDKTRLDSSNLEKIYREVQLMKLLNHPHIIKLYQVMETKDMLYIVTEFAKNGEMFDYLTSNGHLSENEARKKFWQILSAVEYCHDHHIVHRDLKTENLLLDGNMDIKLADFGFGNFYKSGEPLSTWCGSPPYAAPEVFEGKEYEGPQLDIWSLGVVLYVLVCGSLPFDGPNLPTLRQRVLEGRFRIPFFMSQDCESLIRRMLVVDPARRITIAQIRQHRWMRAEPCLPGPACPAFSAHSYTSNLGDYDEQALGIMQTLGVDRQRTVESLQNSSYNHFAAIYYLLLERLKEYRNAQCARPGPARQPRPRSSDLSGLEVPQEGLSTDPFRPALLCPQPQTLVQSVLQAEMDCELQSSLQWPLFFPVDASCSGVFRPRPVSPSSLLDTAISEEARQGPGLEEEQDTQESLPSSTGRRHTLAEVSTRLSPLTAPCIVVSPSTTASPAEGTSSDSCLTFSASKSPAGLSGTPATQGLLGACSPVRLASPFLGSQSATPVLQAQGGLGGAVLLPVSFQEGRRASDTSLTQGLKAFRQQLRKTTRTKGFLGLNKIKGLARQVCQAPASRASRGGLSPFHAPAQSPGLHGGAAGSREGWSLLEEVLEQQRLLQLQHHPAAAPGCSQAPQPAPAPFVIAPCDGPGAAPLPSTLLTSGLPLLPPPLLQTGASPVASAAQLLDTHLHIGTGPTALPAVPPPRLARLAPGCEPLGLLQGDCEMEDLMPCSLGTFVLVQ

SMILES | IC50 [1] [nM] | IC50 [2] [nM] | IC50 [3] [nM]
COc1cc(-c2cnc3cc(OC[C@H]4CCN(CCC#N)C4)ccn23)cc(OC(F)F)c1C(=O)NC1CC1 [compound 350, 4-[7-[[(3S)-1-(2-cyanoethyl)pyrrolidin-3-yl]methoxy]imidazo[1,2-a]pyridin-3-yl]-N-cyclopropyl-2-(difluoromethoxy)-6-methoxy-benzamide] | 10 to 100 | 0.01 to 10 | 0.01 to 10
COc1cc(-c2cnc3cc(OCc4nccs4)ccn23)cc(OC(F)F)c1C(=O)NC1CC1 [compound 47, N-cyclopropyl-2-(difluoromethoxy)-6-methoxy-4-[7-(thiazol-2-ylmethoxy)imidazo[1,2-a]pyridin-3-yl]benzamide] | 10 to 100 | 0.01 to 10 | 0.01 to 10
COc1cc(-c2cnc3cc(OCc4nc(C)no4)ccn23)cc(OC(F)F)c1C(=O)NC1CC1 [compound 229, N-cyclopropyl-2-(difluoromethoxy)-6-methoxy-4-[7-[(3-methyl-1,2,4-oxadiazol-5-yl)methoxy]imidazo[1,2-a]pyridin-3-yl]benzamide] | 10 to 100 | 0.01 to 10 | 0.01 to 10
COc1cc(-c2cnc3cc(OCC4CCCNC4)ccn23)cc(OC(F)F)c1C(=O)NC1CC1 (stereo not drawn) [compound 143, N-cyclopropyl-2-(difluoromethoxy)-6-methoxy-4-[7-(3-piperidylmethoxy)imidazo[1,2-a]pyridin-3-yl]benzamide] | 0.01 to 10 | 0.01 to 10 | 0.01 to 10
CCOCCOc1cc(-c2cnc3cc(OCCN(C)C)ccn23)cc(OC)c1C(=O)NC1CC1 [Cpd 56, N-cyclopropyl-4-[7-[2-(dimethylamino)ethoxy]imidazo [1,2-a]pyridin-3-yl]-2-(2-ethoxyethoxy)-6-methoxy-benzamide] | > 500 | 100 to 500 | 100 to 500
COc1cc(-c2cnc3cc(OCC4(O)CCN(C(C)C)C4)ccn23)cc(OC(F)F)c1C(=O)NC1CC1 (stereo not drawn) [Cpd 372, N-cyclopropyl-2-(difluoromethoxy)-4-[7-[(3-hydroxy-1-isopropyl-pyrrolidin-3-yl)methoxy]imidazo[1,2-a]pyridin-3-yl]-6-methoxy-benzamide] | 10 to 100 | 0.01 to 10 | 0.01 to 10
COc1cc(-c2cnc3cc(OCCN4CCCC(C#N)C4)ccn23)cc(OC(F)F)c1C(=O)NC1CC1 (stereo not drawn) [compound 216, 4-[7-[2-(3-cyano-1-piperidyl)ethoxy]imidazo [1,2-a]pyridin-3-yl]-N-cyclopropyl-2-(difluoromethoxy)-6-methoxy-benzamide] | 0.01 to 10 | 0.01 to 10 | 0.01 to 10
COc1cc(-c2cnc3cc(OCCN(C)c4ccnnc4)ccn23)cc(OC(F)F)c1C(=O)NC1CC1 [compound 240, N-cyclopropyl-2-(difluoromethoxy)-6-methoxy-4-[7-[2-[methyl(pyridazin-4-yl)amino]ethoxy]imidazo [1,2-a]pyridin-3-yl]benzamide] | 0.01 to 10 | 0.01 to 10 | 0.01 to 10
COc1cc(-c2cnc3cc(OC[C@H]4CCNC4)ccn23)cc(OC(F)F)c1C(=O)NC1CC1 [Cpd 314, N-cyclopropyl-2-(difluoromethoxy)-6-methoxy-4-[7-[[(3S)-pyrrolidin-3-yl]methoxy]imidazo[1,2-a]pyridin-3-yl]benzamide] | 10 to 100 | 0.01 to 10 | 0.01 to 10
COc1cc(-c2cnc3cc(OCCCN4CCCCC4)ccn23)cc(OC(F)F)c1C(=O)N1CC(O)(CC#N)C1 [compound 355, 2-[1-[2-(difluoromethoxy)-6-methoxy-4-[7-[3-(1-piperidyl)propoxy]imidazo[1,2-a]pyridin-3-yl]benzoyl]-3-hydroxy-azetidin-3-yl]acetonitrile] | 100 to 500 | 10 to 100 | 100 to 500
COc1cc(-c2cnc3cc(OCCCN4CCC(S(C)(=O)=O)CC4)ccn23)cc(OC(F)F)c1C(=O)NC1CC1 [compound 347, N-cyclopropyl-2-(difluoromethoxy)-6-methoxy-4-[7-[3-(4-methylsulfonyl-1-piperidyl)propoxy]imidazo[1,2-a]pyridin-3-yl]benzamide] | 10 to 100 | 0.01 to 10 | 0.01 to 10
COc1cc(-c2cnc3cc(OCCCN4CCC(N(C)S(C)(=O)=O)CC4)ccn23)cc(OC(F)F)c1C(=O)NC1CC1 [compound 326, N-cyclopropyl-2-(difluoromethoxy)-6-methoxy-4-[7-[3-[4-[methyl(methylsulfonyl)amino]-1-piperidyl]propoxy]imidazo[1,2-a]pyridin-3-yl]benzamide] | 10 to 100 | 0.01 to 10 | 0.01 to 10
COc1cc(-c2cnc3cc(OCC4(N)CCC4)ccn23)cc(OC(F)F)c1C(=O)NC1CC1 [compound 174, 4-[7-[(1-aminocyclobutyl)methoxy]imidazo[1,2-a]pyridin-3-yl]-N-cyclopropyl-2-(difluoromethoxy)-6-methoxy-benzamide] | 100 to 500 | 0.01 to 10 | 0.01 to 10
COc1cc(-c2cnc3cc(OC[C@@H](N)CC(C)C)ccn23)cc(OC(F)F)c1C(=O)NC1CC1 [compound 132, 4-[7-[(2S)-2-amino-4-methyl-pentoxy]imidazo[1,2-a]pyridin-3-yl]-N-cyclopropyl-2-(difluoromethoxy)-6-methoxy-benzamide] | 10 to 100 | 0.01 to 10 | 0.01 to 10
COc1cc(-c2cnc3cc(OC[C@H]4CCN(CCO)C4)ccn23)cc(OC(F)F)c1C(=O)NC1CC1 [Cpd 341, N-cyclopropyl-2-(difluoromethoxy)-4-[7-[[(3S)-1-(2-hydroxyethyl)pyrrolidin-3-yl]methoxy]imidazo[1,2-a]pyridin-3-yl]-6-methoxy-benzamide] | 10 to 100 | 0.01 to 10 | 0.01 to 10
COC(=O)N1CCCCC1COc1ccn2c(-c3cc(OC)c(C(=O)NC4CC4)c(OC(F)F)c3)cnc2c1 (stereo not drawn) [Cpd 130, methyl 2-[[3-[4-(cyclopropylcarbamoyl)-3-(difluoromethoxy)-5-methoxy-phenyl]imidazo[1,2-a]pyridin-7-yl]oxymethyl]piperidine-1-carboxylate] | 0.01 to 10 | 0.01 to 10 | 0.01 to 10
COc1cc(-c2cnc3cc(OC4(C#N)CCCC4)ccn23)cc(OC(F)F)c1C(=O)NC1CC1 [Cpd 255, 4-[7-(1-cyanocyclopentoxy)imidazo[1,2-a]pyridin-3-yl]-N-cyclopropyl-2-(difluoromethoxy)-6-methoxy-benzamide] | > 500 | 100 to 500 | 10 to 100
CCn1ccnc1COc1ccn2c(-c3cc(OC)c(C(=O)NC4CC4)c(OC(F)F)c3)cnc2c1 [Cpd 173, N-cyclopropyl-2-(difluoromethoxy)-4-[7-[(1-ethylimidazol-2-yl)methoxy]imidazo[1,2-a]pyridin-3-yl]-6-methoxy-benzamide] | 100 to 500 | 0.01 to 10 | 0.01 to 10
COc1cc(-c2cnc3cc(OCCCOS(C)(=O)=O)ccn23)cc(OC(F)F)c1C(=O)NC1CC1 [Cpd 333, 3-[3-[4-(cyclopropylcarbamoyl)-3-(difluoromethoxy)-5-methoxy-phenyl]imidazo[1,2-a]pyridin-7-yl]oxypropyl methanesulfonate] | 10 to 100 | 0.01 to 10 | 0.01 to 10
COc1cc(-c2cnc3cc(OCC4CC(=O)N(C)C4)ccn23)cc(OC(F)F)c1C(=O)NC1CC1 (stereo not drawn) [compound 26, N-cyclopropyl-2-(difluoromethoxy)-6-methoxy-4-[7-[(1-methyl-5-oxo-pyrrolidin-3-yl)methoxy]imidazo[1,2-a]pyridin-3-yl]benzamide] | 10 to 100 | 0.01 to 10 | 0.01 to 10
COc1cc(-c2cnc3cc(OC[C@H]4COCCO4)ccn23)cnc1C(=O)NCC(F)(F)F [compound 265, 5-[7-[[(2R)-1,4-dioxan-2-yl]methoxy]imidazo[1,2-a]pyridin-3-yl]-3-methoxy-N-(2,2,2-trifluoroethyl)pyridine-2-carboxamide] | > 500 | 100 to 500 | 100 to 500
COc1cc(-c2cnc3cc(OC[C@H]4CCCN4CC(F)F)ccn23)cc(OC(F)F)c1C(=O)NC1CC1 [compound 80, N-cyclopropyl-4-[7-[[(2R)-1-(2,2-difluoroethyl)pyrrolidin-2-yl]methoxy]imidazo[1,2-a]pyridin-3-yl]-2-(difluoromethoxy)-6-methoxy-benzamide] | 10 to 100 | 0.01 to 10 | 0.01 to 10
COc1cc(-c2cnc3cc(OCc4ccn(C)n4)ccn23)cc(OC(F)F)c1C(=O)NC1CC1 [compound 200, N-cyclopropyl-2-(difluoromethoxy)-6-methoxy-4-[7-[(1-methylpyrazol-3-yl)methoxy]imidazo[1,2-a]pyridin-3-yl]benzamide] | 10 to 100 | 0.01 to 10 | 0.01 to 10
COc1cc(-c2cnc3cc(OCc4ncccn4)ccn23)cc(OC(F)F)c1C(=O)NC1CC1 [compound 94, N-cyclopropyl-2-(difluoromethoxy)-6-methoxy-4-[7-(pyrimidin-2-ylmethoxy)imidazo[1,2-a]pyridin-3-yl]benzamide] | 10 to 100 | 10 to 100 | 10 to 100
COc1cc(-c2cnc3cc(OCCN4CCCC(F)(F)C4)ccn23)cc(OC(F)F)c1C(=O)NC1CC1 [compound 211, N-cyclopropyl-2-(difluoromethoxy)-4-[7-[2-(3,3-difluoro-1-piperidyl)ethoxy]imidazo [1,2-a]pyridin-3-yl]-6-methoxy-benzamide] | 0.01 to 10 | 0.01 to 10 | 0.01 to 10
